Source: ChEMBL document CHEMBL1157703, “Synthesis, pharmacological studies and molecular modeling of some tetracyclic 1,3-diazepinium chlorides” (Bioorg Med Chem, 2010)

Biological target: Sodium-dependent dopamine transporter (Homo sapiens) (UniProt Q01959)
Sequence (Q01959 whole entry): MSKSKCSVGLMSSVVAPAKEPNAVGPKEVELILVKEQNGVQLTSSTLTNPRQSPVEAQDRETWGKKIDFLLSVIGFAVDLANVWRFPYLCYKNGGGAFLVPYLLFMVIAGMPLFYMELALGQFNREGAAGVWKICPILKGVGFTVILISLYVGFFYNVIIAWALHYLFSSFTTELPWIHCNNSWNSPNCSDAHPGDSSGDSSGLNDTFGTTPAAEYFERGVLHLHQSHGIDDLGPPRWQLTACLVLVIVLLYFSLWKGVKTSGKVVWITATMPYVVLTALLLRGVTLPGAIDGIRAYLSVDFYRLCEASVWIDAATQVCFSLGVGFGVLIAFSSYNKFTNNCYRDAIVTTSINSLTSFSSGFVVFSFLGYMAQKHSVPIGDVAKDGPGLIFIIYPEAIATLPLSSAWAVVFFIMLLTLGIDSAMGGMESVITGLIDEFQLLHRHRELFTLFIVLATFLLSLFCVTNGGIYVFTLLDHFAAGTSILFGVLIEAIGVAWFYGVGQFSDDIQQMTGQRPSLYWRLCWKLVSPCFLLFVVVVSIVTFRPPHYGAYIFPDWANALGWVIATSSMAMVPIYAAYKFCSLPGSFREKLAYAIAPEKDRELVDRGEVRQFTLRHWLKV

- Ki: > 10 µM
Compound: NCCc1ccc(O)c(O)c1
